Data from ChEMBL document CHEMBL5150017, “Mechanism of Action and Structure-Activity Relationship of α-Conotoxin Mr1.1 at the Human α9α10 Nicotinic Acetylcholine Receptor” (J Med Chem, 2022).
Activity calls are given as the source filed them. The rule behind the calls is not given here. Positions of bridges follow the written chain, without caps; N, C: chain ends. Non-standard residues stand in square brackets, D forms with d. Residues, ends and D or L forms follow the SMILES beside them. ξ: configuration not given here. Cit = NC(=O)NCCC[C@H](N)C(=O)O; Dap = NC[C@H](N)C(=O)O; ξDab = NCCC(N)C(=O)O; ξDap = NCC(N)C(=O)O

Biological target: Neuronal acetylcholine receptor; alpha9/alpha10 (Homo sapiens) (UniProt Q9UGM1+Q9GZZ6)
Experiment: Antagonist activity at human alpha9alpha10 nAChR expressed in Xenopus laevis oocytes assessed as inhibition of ACh-induced current amplitude at -80 mV holding potential at 100 nM by two-electrode voltage clamp method
Assay type: cell-based
Conditions: Oocyte

Structure (SMILES)	inhibition
CC[C@H](C)[C@@H]1NC(=O)[C@H](CC(=O)O)NC(=O)[C@@H]2CCCN2C(=O)[C@H](CC(N)=O)NC(=O)[C@H](CC(N)=O)NC(=O)[C@H](C(C)C)NC(=O)[C@H](CO)NC(=O)[C@@H]2CSSC[C@H](NC(=O)CN)C(=O)N[C@@H](CSSC[C@@H](C(N)=O)NC1=O)C(=O)N[C@@H](CO)C(=O)N[C@@H](CCCNC(=N)N)C(=O)N1CCC[C@H]1C(=O)N[C@@H](C)C(=O)N2 (H-GCCSRPACSVNNPDIC-NH2; disulfide 2-8, 3-16)	10%
CC[C@H](C)[C@@H]1NC(=O)[C@H](CC(=O)O)NC(=O)[C@@H]2CCCN2C(=O)[C@H](CC(N)=O)NC(=O)[C@H](CC(N)=O)NC(=O)[C@H](C(C)C)NC(=O)[C@H](Cc2ccc(O)cc2)NC(=O)[C@@H]2CSSC[C@H](NC(=O)CN)C(=O)N[C@@H](CSSC[C@@H](C(N)=O)NC1=O)C(=O)N[C@@H](CO)C(=O)N[C@@H](Cc1cnc[nH]1)C(=O)N1CCC[C@H]1C(=O)N[C@@H](C)C(=O)N2 (H-GCCSHPACYVNNPDIC-NH2; disulfide 2-8, 3-16)	5%
CC[C@H](C)[C@@H]1NC(=O)[C@H](CC(=O)O)NC(=O)[C@@H]2CCCN2C(=O)[C@H](CC(N)=O)NC(=O)[C@H](CC(N)=O)NC(=O)[C@H](C(C)C)NC(=O)[C@H](CO)NC(=O)[C@@H]2CSSC[C@H](NC(=O)CN)C(=O)N[C@@H](CSSC[C@@H](C(=O)N[C@@H](Cc3ccc(O)cc3)C(N)=O)NC1=O)C(=O)N[C@@H](CO)C(=O)N[C@@H](Cc1cnc[nH]1)C(=O)N1CCC[C@H]1C(=O)N[C@@H](C)C(=O)N2 (H-GCCSHPACSVNNPDICY-NH2; disulfide 2-8, 3-16)	15%
CC[C@H](C)[C@@H]1NC(=O)[C@H](CC(=O)O)NC(=O)[C@@H]2CCCN2C(=O)[C@H](CC(N)=O)NC(=O)[C@H](CC(N)=O)NC(=O)[C@H](CCCNC(N)=O)NC(=O)[C@H](CO)NC(=O)[C@@H]2CSSC[C@H](NC(=O)CN)C(=O)N[C@@H](CSSC[C@@H](C(N)=O)NC1=O)C(=O)N[C@@H](CO)C(=O)N[C@@H](Cc1cnc[nH]1)C(=O)N1CCC[C@H]1C(=O)N[C@@H](C)C(=O)N2 (H-GCCSHPACS[Cit]NNPDIC-NH2; disulfide 2-8, 3-16)	< 5%
CC[C@H](C)[C@@H]1NC(=O)[C@H](CC(=O)O)NC(=O)[C@@H]2CCCN2C(=O)[C@H](CC(N)=O)NC(=O)[C@H](CC(N)=O)NC(=O)[C@H](C(C)C)NC(=O)[C@H](CO)NC(=O)[C@@H]2CSSC[C@H](NC(=O)CN)C(=O)N[C@@H](CSSC[C@@H](C(=O)N[C@@H](CC(C)C)C(N)=O)NC1=O)C(=O)N[C@@H](CO)C(=O)N[C@@H](Cc1cnc[nH]1)C(=O)N1CCC[C@H]1C(=O)N[C@@H](C)C(=O)N2 (H-GCCSHPACSVNNPDICL-NH2; disulfide 2-8, 3-16)	15%
CC[C@H](C)[C@@H]1NC(=O)[C@H](CC(=O)O)NC(=O)[C@@H]2CCCN2C(=O)[C@H](CC(N)=O)NC(=O)[C@H](CC(N)=O)NC(=O)[C@H](C(C)C)NC(=O)C(CCN)NC(=O)[C@@H]2CSSC[C@H](NC(=O)CN)C(=O)N[C@@H](CSSC[C@@H](C(N)=O)NC1=O)C(=O)N[C@@H](CO)C(=O)N[C@@H](Cc1cnc[nH]1)C(=O)N1CCC[C@H]1C(=O)N[C@@H](C)C(=O)N2 (stereo not given in full) (H-GCCSHPAC[ξDab]VNNPDIC-NH2; disulfide 2-8, 3-16)	15%
CC[C@H](C)[C@@H]1NC(=O)[C@H](CC(=O)O)NC(=O)[C@@H]2CCCN2C(=O)[C@H](CC(N)=O)NC(=O)[C@H](CC(N)=O)NC(=O)[C@H](C(C)C)NC(=O)[C@H](CO)NC(=O)[C@@H]2CSSC[C@H](NC(=O)CN)C(=O)N[C@@H](CSSC[C@@H](C(N)=O)NC1=O)C(=O)N[C@@H]([C@@H](C)O)C(=O)N[C@@H](Cc1cnc[nH]1)C(=O)N1CCC[C@H]1C(=O)N[C@@H](C)C(=O)N2 (H-GCCTHPACSVNNPDIC-NH2; disulfide 2-8, 3-16)	10%
CC[C@H](C)[C@@H]1NC(=O)[C@H](CC(=O)O)NC(=O)[C@@H]2CCCN2C(=O)[C@H](CC(N)=O)NC(=O)[C@H](CC(N)=O)NC(=O)[C@H](CCCCN)NC(=O)[C@H](CO)NC(=O)[C@@H]2CSSC[C@H](NC(=O)CN)C(=O)N[C@@H](CSSC[C@@H](C(N)=O)NC1=O)C(=O)N[C@@H](CO)C(=O)N[C@@H](Cc1cnc[nH]1)C(=O)N1CCC[C@H]1C(=O)N[C@@H](C)C(=O)N2 (H-GCCSHPACSKNNPDIC-NH2; disulfide 2-8, 3-16)	< 5%
CC[C@H](C)[C@@H]1NC(=O)[C@H](CC(=O)O)NC(=O)[C@@H]2CCCN2C(=O)[C@H](CC(N)=O)NC(=O)[C@H](CC(N)=O)NC(=O)[C@H](CC(=O)O)NC(=O)[C@H](CO)NC(=O)[C@@H]2CSSC[C@H](NC(=O)CN)C(=O)N[C@@H](CSSC[C@@H](C(N)=O)NC1=O)C(=O)N[C@@H](CO)C(=O)N[C@@H](Cc1cnc[nH]1)C(=O)N1CCC[C@H]1C(=O)N[C@@H](C)C(=O)N2 (H-GCCSHPACSDNNPDIC-NH2; disulfide 2-8, 3-16)	< 5%
CC[C@H](C)[C@@H]1NC(=O)[C@H](CC(=O)O)NC(=O)[C@@H]2CCCN2C(=O)[C@H](CC(N)=O)NC(=O)[C@H](CC(N)=O)NC(=O)C(CCN)NC(=O)[C@H](CO)NC(=O)[C@@H]2CSSC[C@H](NC(=O)CN)C(=O)N[C@@H](CSSC[C@@H](C(N)=O)NC1=O)C(=O)N[C@@H](CO)C(=O)N[C@@H](Cc1cnc[nH]1)C(=O)N1CCC[C@H]1C(=O)N[C@@H](C)C(=O)N2 (stereo not given in full) (H-GCCSHPACS[ξDab]NNPDIC-NH2; disulfide 2-8, 3-16)	35%

Same assay, conditions: Oocyte, filed as antagonist

Structure (SMILES)	inhibition
CC[C@H](C)[C@@H]1NC(=O)[C@H](CC(=O)O)NC(=O)[C@@H]2CCCN2C(=O)[C@H](CC(N)=O)NC(=O)[C@H](CC(N)=O)NC(=O)[C@H](CCCNC(=N)N)NC(=O)[C@H](CO)NC(=O)[C@@H]2CSSC[C@H](NC(=O)CN)C(=O)N[C@@H](CSSC[C@@H](C(N)=O)NC1=O)C(=O)N[C@@H](CO)C(=O)N[C@@H](Cc1cnc[nH]1)C(=O)N1CCC[C@H]1C(=O)N[C@@H](C)C(=O)N2 (H-GCCSHPACSRNNPDIC-NH2; disulfide 2-8, 3-16)	60%
CC[C@H](C)[C@@H]1NC(=O)[C@H](CC(=O)O)NC(=O)[C@@H]2CCCN2C(=O)[C@H](CC(N)=O)NC(=O)[C@H](CC(N)=O)NC(=O)[C@H](C(C)C)NC(=O)[C@H](CO)NC(=O)[C@@H]2CSSC[C@H](NC(=O)CN)C(=O)N[C@@H](CSSC[C@@H](C(=O)N[C@@H](CCCNC(=N)N)C(N)=O)NC1=O)C(=O)N[C@@H](CO)C(=O)N[C@@H](Cc1cnc[nH]1)C(=O)N1CCC[C@H]1C(=O)N[C@@H](C)C(=O)N2 (H-GCCSHPACSVNNPDICR-NH2; disulfide 2-8, 3-16)	60%
CC[C@H](C)[C@@H]1NC(=O)[C@H](CC(=O)O)NC(=O)[C@@H]2CCCN2C(=O)[C@H](CC(N)=O)NC(=O)[C@H](CC(N)=O)NC(=O)C(CN)NC(=O)[C@H](CO)NC(=O)[C@@H]2CSSC[C@H](NC(=O)CN)C(=O)N[C@@H](CSSC[C@@H](C(N)=O)NC1=O)C(=O)NC(CN)C(=O)N[C@@H](Cc1cnc[nH]1)C(=O)N1CCC[C@H]1C(=O)N[C@@H](C)C(=O)N2 (stereo not given in full) (H-GCC[ξDap]HPACS[ξDap]NNPDIC-NH2; disulfide 2-8, 3-16)	> 95%
CC[C@H](C)[C@@H]1NC(=O)[C@H](CC(=O)O)NC(=O)[C@@H]2CCCN2C(=O)[C@H](CC(N)=O)NC(=O)[C@H](CC(N)=O)NC(=O)[C@H](C(C)C)NC(=O)[C@H](CO)NC(=O)[C@@H]2CSSC[C@H](NC(=O)CN)C(=O)N[C@@H](CSSC[C@@H](C(N)=O)NC1=O)C(=O)N[C@@H](CCCNC(=N)N)C(=O)N[C@@H](Cc1cnc[nH]1)C(=O)N1CCC[C@H]1C(=O)N[C@@H](C)C(=O)N2 (H-GCCRHPACSVNNPDIC-NH2; disulfide 2-8, 3-16)	> 85%
CC[C@H](C)[C@@H]1NC(=O)[C@H](CC(=O)O)NC(=O)[C@@H]2CCCN2C(=O)[C@H](CC(N)=O)NC(=O)[C@H](CC(N)=O)NC(=O)C(CN)NC(=O)[C@H](CO)NC(=O)[C@@H]2CSSC[C@H](NC(=O)CN)C(=O)N[C@@H](CSSC[C@@H](C(N)=O)NC1=O)C(=O)N[C@@H](CO)C(=O)N[C@@H](Cc1cnc[nH]1)C(=O)N1CCC[C@H]1C(=O)N[C@@H](C)C(=O)N2 (stereo not given in full) (H-GCCSHPACS[ξDap]NNPDIC-NH2; disulfide 2-8, 3-16)	> 90%
CC[C@H](C)[C@@H]1NC(=O)[C@H](CC(=O)O)NC(=O)[C@@H]2CCCN2C(=O)[C@H](CC(N)=O)NC(=O)[C@H](CC(N)=O)NC(=O)[C@H](C(C)C)NC(=O)[C@H](CN)NC(=O)[C@@H]2CSSC[C@H](NC(=O)CN)C(=O)N[C@@H](CSSC[C@@H](C(N)=O)NC1=O)C(=O)N[C@@H](CO)C(=O)N[C@@H](Cc1c[nH]cn1)C(=O)N1CCC[C@H]1C(=O)N[C@@H](C)C(=O)N2 (H-GCCSHPAC[Dap]VNNPDIC-NH2; disulfide 2-8, 3-16)	Active
CC[C@H](C)[C@@H]1NC(=O)[C@H](CC(=O)O)NC(=O)[C@@H]2CCCN2C(=O)[C@H](CC(N)=O)NC(=O)[C@H](CC(N)=O)NC(=O)[C@H](C(C)C)NC(=O)[C@H](CO)NC(=O)[C@@H]2CSSC[C@H](NC(=O)CN)C(=O)N[C@@H](CSSC[C@@H](C(N)=O)NC1=O)C(=O)NC(CCN)C(=O)N[C@@H](Cc1cnc[nH]1)C(=O)N1CCC[C@H]1C(=O)N[C@@H](C)C(=O)N2 (stereo not given in full) (H-GCC[ξDab]HPACSVNNPDIC-NH2; disulfide 2-8, 3-16)	> 85%
CC[C@H](C)[C@@H]1NC(=O)[C@H](CC(=O)O)NC(=O)[C@@H]2CCCN2C(=O)[C@H](CC(N)=O)NC(=O)[C@H](CC(N)=O)NC(=O)[C@H](C(C)C)NC(=O)C(CN)NC(=O)[C@@H]2CSSC[C@H](NC(=O)CN)C(=O)N[C@@H](CSSC[C@@H](C(N)=O)NC1=O)C(=O)NC(CN)C(=O)N[C@@H](Cc1cnc[nH]1)C(=O)N1CCC[C@H]1C(=O)N[C@@H](C)C(=O)N2 (stereo not given in full) (H-GCC[ξDap]HPAC[ξDap]VNNPDIC-NH2; disulfide 2-8, 3-16)	> 95%
CC[C@H](C)[C@@H]1NC(=O)[C@H](CC(=O)O)NC(=O)[C@@H]2CCCN2C(=O)[C@H](CC(N)=O)NC(=O)[C@H](CC(N)=O)NC(=O)C(CCN)NC(=O)[C@H](CO)NC(=O)[C@@H]2CSSC[C@H](NC(=O)CN)C(=O)N[C@@H](CSSC[C@@H](C(N)=O)NC1=O)C(=O)N[C@@H](CO)C(=O)N[C@@H](Cc1cnc[nH]1)C(=O)N1CCC[C@H]1C(=O)N[C@@H](C)C(=O)N2 (stereo not given in full) (H-GCCSHPACS[ξDab]NNPDIC-NH2; disulfide 2-8, 3-16)	Active
CC[C@H](C)[C@@H]1NC(=O)[C@H](CC(=O)O)NC(=O)[C@@H]2CCCN2C(=O)[C@H](CC(N)=O)NC(=O)[C@H](CC(N)=O)NC(=O)[C@H](CN)NC(=O)[C@H](CO)NC(=O)[C@@H]2CSSC[C@H](NC(=O)CN)C(=O)N[C@@H](CSSC[C@@H](C(N)=O)NC1=O)C(=O)N[C@@H](CO)C(=O)N[C@@H](Cc1c[nH]cn1)C(=O)N1CCC[C@H]1C(=O)N[C@@H](C)C(=O)N2 (H-GCCSHPACS[Dap]NNPDIC-NH2; disulfide 2-8, 3-16)	Active
